PMC5458078, “Global mapping of CARM1 substrates defines enzyme specificity and substrate recognition” (Nature Communications, 2017)
Like-named read-outs stand apart in the source and are kept apart here.

How the values were obtained:
[1] = tested on: MCF7 cells; assay: Quantitative nanoLC-MS/MS (TMT) of ADMA-containing peptides, CARM1 KO vs parental; assay type: cell-based, human; set-up: Fold change KO/WT: scale not given here
[2] = tested on: MCF7 CARM1 KO cells; assay: Quantitative MS of ADMA-containing peptides in MCF7 CARM1 KO cells expressing CARM1 28-608 or CARM1 140-608, and in CARM1 KO; assay type: cell-based, human
[3] = ADMA-containing peptide, MCF7, CARM1 knockout (KO1-3) vs wild type (WT1-3), TMT 6-plex experiment #1
[4] = log2 scale ratio, mean of n = 3
[5] = MCF7 CARM1 knockout vs wild type, 3 biological replicates each, values are on log2 scale
[6] = difference of log2 means, CARM1 140-608 vs WT
[7] = difference of log2 means, KO vs WT
[8] = MCF7, CARM1 KO (KO1-KO3) vs wild type (WT1-WT3)
[9] = CARM1 140-608 vs WT, mean of 3 replicates (log2 scale)
[10] = KO vs WT, mean of 3 replicates (log2 scale)
[11] = MCF7, CARM1 KO vs WT, three biological replicates each
[12] = CARM1 140-608 vs WT, mean of 3 replicates, log2
[13] = KO vs WT, mean of 3 replicates, log2
[14] = mean, CARM1 140-608 versus WT (log2 scale)
[15] = mean, CARM1 KO versus WT (log2 scale)
[16] = MCF7, CARM1 knockout vs wild type, n = 3 each
[17] = ratio on log2 scale, mean of 3 replicates

SQGAQPQQVTLrLALR
Fold change KO/WT ([1]; ADMA-containing peptide, CARM1 knockout (KO) vs wild type (WT) MCF7 cells, 6-plex TMT experiment #1, three biological replicates each, sheet "MCF7"): -1.987 | CARM1 140-608/WT ([2]; CARM1 140-608 versus WT, mean of three replicates (log2)): -1.727 | KO/WT ([2]; KO versus WT, mean of three replicates (log2)): -1.987

GVVNTAVSAAVQAVrGrGrGTLTr
Fold change KO/WT [1, 3]: -0.6248 | CARM1 140-608/WT [2, 4]: -0.4677 | KO/WT [2, 4]: -0.6727

QLVGGSQAFYQrAPYPGSLPLQQQQQQLWQQQQATAATSMrFAMSARFPSTPGPELGR
Fold change KO/WT [1, 5]: -2.512 | CARM1 140-608/WT [2, 6]: -1.475 | KO/WT [2, 7]: -2.512

SLCASTLTVSSGSSrGSLASSrGSLASSR
Fold change KO/WT ([1]; CARM1 KO vs wild type MCF7 cells, 3 biological replicates each): -0.6221 | CARM1 140-608/WT ([2]; CARM1 140-608 versus WT, difference of mean log2 values): -0.3572 | KO/WT ([2]; CARM1 KO versus WT, difference of mean log2 values): -0.04724

MGTPVPrPPQDMGQIGVrTPLGPrVAAPVGPVGPTPTVLPMGAPVPrPR
Fold change KO/WT [1, 8]: -2.587 | CARM1 140-608/WT [2, 9]: -1.761 | KO/WT [2, 10]: -2.783

APPGGLHAPrLSLEGAArGAAEAK
Fold change KO/WT [1, 11]: -2.606 | CARM1 140-608/WT [2, 12]: -2.013 | KO/WT [2, 13]: -2.606

TATVTIrPNTSGSGGTTSNSQVITGPQIrPGMTVIRTPLQQSTLGK
Fold change KO/WT [1, 11]: -1.078 | CARM1 140-608/WT [2, 12]: 2.998 | KO/WT [2, 13]: -1.078

MGAGMGFGLErMAAPIDR
Fold change KO/WT [1, 5]: -3.039 | CARM1 140-608/WT [2, 14]: -2.085 | KO/WT [2, 15]: -3.039

APGPrGSYLGGYSAGR
Fold change KO/WT [1, 8]: -0.1976 | CARM1 140-608/WT [2, 9]: -0.09328 | KO/WT [2, 10]: -0.2416

QLrYQQPGPGSSPSSFLLK
Fold change KO/WT [1, 11]: -4.8874 | CARM1 140-608/WT [2, 12]: -1.181 | KO/WT [2, 13]: -5.114

LLGQRPGPYDRPIGGrGGYYGAGR
Fold change KO/WT [1, 5]: -0.08078 | CARM1 140-608/WT [2, 14]: 0.09661 | KO/WT [2, 15]: 0.2187

SPVAPPLGPrYAVFPK
Fold change KO/WT [1, 5]: -2.706 | CARM1 140-608/WT [2, 6]: 2.312 | KO/WT [2, 7]: -0.9897

APVFPGrGSYSNr
Fold change KO/WT [1, 5]: 0.2723 | CARM1 140-608/WT [2, 14]: 0.2637 | KO/WT [2, 15]: 0.3482

NHPrVYQNR
Fold change KO/WT [1, 3]: 0.9632 | CARM1 140-608/WT [2, 4]: -0.04969 | KO/WT [2, 4]: 0.9632

GTVVTPVQVPLLPVPSQPrPAVGPQrFPGPPEFPQHTPGPVPNSFSQPPrLPLQDQWrAPPPPQDR
Fold change KO/WT [1, 8]: -3.321 | CARM1 140-608/WT [2, 9]: -1.653 | KO/WT [2, 10]: -3.712

VSTSGPrAFSSR
Fold change KO/WT [1, 5]: -3.388 | CARM1 140-608/WT [2, 6]: -3.216 | KO/WT [2, 7]: -3.388

DYFPPGDFPGPPPAPFAMrNVYPPrGFPPYLPPrPGFFPPPPHSEGR
Fold change KO/WT [1, 16]: -2.577 | CARM1 140-608/WT [2, 17]: -0.7489 | KO/WT [2, 17]: -2.577

LFIGGLSFETTDDSLr
Fold change KO/WT [1, 16]: -0.1032 | CARM1 140-608/WT [2, 14]: -0.1871 | KO/WT [2, 15]: 0.1666

FLQPrLAPNQPPPPLIrPALAAPR
Fold change KO/WT [1, 8]: -3.157 | CARM1 140-608/WT [2, 9]: 0.3049 | KO/WT [2, 10]: -2.801

FCAFGGNPPVTGPrSALAPNLLTSGK
Fold change KO/WT [1, 11]: -4.63 | CARM1 140-608/WT [2, 12]: -3.4143 | KO/WT [2, 13]: -5.047

ELSHPPLYrLPLLENAETPQ
Fold change KO/WT [1, 3]: -3.498 | CARM1 140-608/WT [2, 4]: -1.659 | KO/WT [2, 4]: -3.498

KPPNQSLPLQPFQLAFGHQVNrQVFrQGPPPPNPVAAFPPQK
Fold change KO/WT [1, 16]: -3.229 | CARM1 140-608/WT [2, 17]: -2.162 | KO/WT [2, 17]: -3.229

RGPPPPPPGrGGrGGSR
Fold change KO/WT [1, 5]: 0.3155 | CARM1 140-608/WT [2, 14]: 0.09749 | KO/WT [2, 15]: 0.3155

ANYNFrGMYNQrYHCPVPK
Fold change KO/WT [1, 3]: -3.002 | CARM1 140-608/WT [2]: -2.05 | KO/WT [2]: -3.002

AGIGVYWGPGHPLNVGIrLPGR
Fold change KO/WT [1, 8]: -0.8432 | CARM1 140-608/WT [2, 9]: -0.6349 | KO/WT [2, 10]: -0.8432

LLFQNLWKPrLNVP
Fold change KO/WT [1, 16]: -4.157 | CARM1 140-608/WT [2, 17]: -1.893 | KO/WT [2, 17]: -4.858

AGGLLGTGSGLNLrMAGPQGLDLAPILR
Fold change KO/WT [1, 11]: -3.029 | CARM1 140-608/WT [2, 17]: -0.05646 | KO/WT [2, 17]: -2.802

ITVPrLSVGSVTSrPSTPTLGTPTPQTMSVSTK
Fold change KO/WT [1, 3]: -2.222 | CARM1 140-608/WT [2, 4]: -1.745 | KO/WT [2, 4]: -2.222

VELPTCMYrLPNVHGR
Fold change KO/WT [1, 11]: -2.379 | CARM1 140-608/WT [2, 12]: -1.403 | KO/WT [2, 13]: -3.7411

AGGAASGGGGNSWDLPGSHVrLPGR
Fold change KO/WT [1, 8]: -0.8314 | CARM1 140-608/WT [2, 9]: -0.7799 | KO/WT [2, 10]: -0.9676

QLPNAGPGAPPALGFSrFPAGAR
Fold change KO/WT [1, 11]: -2.458 | CARM1 140-608/WT [2, 12]: -1.8557 | KO/WT [2, 13]: -2.458

TPTATTSGIrATLTPTVLAPR
Fold change KO/WT [1, 3]: -1.669 | CARM1 140-608/WT [2, 4]: 0.4696 | KO/WT [2, 4]: -2.089

VSTSGPrAFSSrSYTSGPGSR
Fold change KO/WT [1, 5]: -3.7435 | CARM1 140-608/WT [2, 6]: -3.492 | KO/WT [2, 7]: -3.7435

GFYPQYGALETrGGFNPR
Fold change KO/WT [1, 5]: -0.3326 | CARM1 140-608/WT [2, 14]: -0.6578 | KO/WT [2, 15]: -0.432
